Reference: patent US8362000B2, “Azetidinyl diamides as monoacylglycerol lipase inhibitors” (Janssen Pharmaceutica NV, priority 2009, dated 2013)
Where a chain is given by its changes, count along the chain named. Where two headings read alike, the source gives them in different places.

Key:
mutant MGL = target: T1, mutant MGL (Homo sapiens, UniProt Q99685, L169S/L176S); assay: MGL ThermoFluor assay - mutant; type: binding
T1 sequence (Q99685 1-303 L169S/L176S): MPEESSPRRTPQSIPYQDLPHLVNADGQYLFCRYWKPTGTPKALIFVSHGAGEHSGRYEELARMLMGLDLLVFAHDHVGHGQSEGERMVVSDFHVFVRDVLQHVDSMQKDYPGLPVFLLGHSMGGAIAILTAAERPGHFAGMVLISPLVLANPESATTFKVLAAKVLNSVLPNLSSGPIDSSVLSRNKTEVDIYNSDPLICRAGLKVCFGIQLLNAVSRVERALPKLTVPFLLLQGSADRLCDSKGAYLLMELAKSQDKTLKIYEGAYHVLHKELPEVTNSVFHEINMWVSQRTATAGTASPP

[1] = target: T2, purified wild type MGL (wt-MGLL 6H-11-313) (Homo sapiens, UniProt Q99685)
T2 sequence (Q99685 1-303): T1 sequence (Q99685 1-303 L169S/L176S) with S169L, S176L

[2] = compound concentration measured by qNMR, read-out: MGL mutant ThermoFluor qKd (using qNMR conc.)
[3] = ThermoFluor, compound concentration measured by qNMR, read-out: MGL mutant ThermoFluor qKd (using qNMR conc.)
[4] = ThermoFluor, compound concentration measured by qNMR, read-out: MGL mutant ThermoFluor qKd (μM) (using qNMR conc.)
[5] = ThermoFluor concentration-response, read-out: MGL mutant ThermoFluor Kd
[6] = ThermoFluor thermal stability binding assay, read-out: MGL mutant ThermoFluor Kd

Compound	IC50 [1] [nM]	Kd (mutant MGL; [3]) [µM]	Kd (mutant MGL; [4]) [µM]	also measured
O=C(c1ccc2cnn(Cc3ccc(F)cc3)c2c1)N1CC(N2CCN(C(=O)c3nccs3)CC2)C1 [Cpd 1051, 1-(4-Fluorobenzyl)-6-({3-[4-(1,3-thiazol-2-ylcarbonyl)piperazin-1-yl]azetidin-1-yl}carbonyl)-1H-indazole]	128			Kd (mutant MGL; [2]): 0.175 µM
O=C(c1ccc2cn(Cc3ccc(F)cc3)nc2c1)N1CC(N2CCN(C(=O)c3nccs3)CC2)C1 [Cpd 1052, 2-(4-Fluorobenzyl)-6-({3-[4-(1,3-thiazol-2-ylcarbonyl)piperazin-1-yl]azetidin-1-yl}carbonyl)-2H-indazole]	28			Kd (mutant MGL; [2]): 0.065 µM
Cc1nn(Cc2ccc(Cl)cc2)c2sc(C(=O)N3CC(N4CCN(C(=O)c5nccs5)CC4)C3)cc12 [Cpd 1053]	18	0.247		
O=C(c1ccc(-c2cccc(C(F)(F)F)c2)cc1)N1CC(N2CCN(C(=O)C3CC3)CC2)C1 [Cpd 1057]	6		0.016	
Cc1ccc(-n2ccc3cc(C(=O)N4CC(N5CCN(C(=O)c6nccs6)CC5)C4)ccc32)nc1 [Cpd 1073, 1-(5-Methylpyridin-2-yl)-5-({3-[4-(1,3-thiazol-2-ylcarbonyl)piperazin-1-yl]azetidin-1-yl}carbonyl)-1H-indole]	34	0.087		
Cc1cc(C(=O)N2CC(N3CCN(C(=O)c4cscn4)CC3)C2)cc2ccn(-c3ccc(F)cc3)c12 [Cpd 1076]	8			Kd (mutant MGL; [2]): 0.02 µM
O=C(c1ccc(-c2cccc(C(F)(F)F)c2)cc1)N1CC(N2CCN(C(=O)c3ccc(Cl)o3)CC2)C1 [Cpd 1078]	9		0.005	
O=C(c1ccc2c(ccn2-c2ccc(F)cc2)c1)N1CC(N2CCN(C(=O)C(F)(F)F)CC2)C1 [Cpd 1079, 1-(4-Fluorophenyl)-5-({3-[4-(trifluoroacetyl)piperazin-1-yl]azetidin-1-yl}carbonyl)-1H-indole]	9	0.272		
O=C(c1ccc2c(cnn2-c2ccc(C(F)(F)F)cc2)c1)N1CC(N2CCN(C(=O)c3nccs3)CC2)C1 [Cpd 1080]	9		0.006	
O=C(c1ccc(-c2cccc(C(F)(F)F)c2)cc1)N1CC(N2CCN(C(=O)c3ncco3)CC2)C1 [Cpd 1085]	9		0.008	
O=C(c1ccc(-c2cccc(C(F)(F)F)c2)cc1)N1CC(N2CCN(C(=O)c3cc(Br)cs3)CC2)C1 [Cpd 1087]	9		0.023	
O=C(c1ccc(-c2cccc(C(F)(F)F)c2)cc1)N1CC(N2CCN(C(=O)c3cocn3)CC2)C1 [Cpd 1094]	11		0.012	
O=C(c1ccc(-c2cccc(C(F)(F)F)c2)cc1)N1CC(N2CCN(C(=O)C3CC3(F)F)CC2)C1 (stereo not shown) [Cpd 1112]	16		0.046	
COc1cc(-n2ccc3cc(C(=O)N4CC(N5CCN(C(=O)c6nccs6)CC5)C4)ccc32)ccc1C#N [Cpd 1115]	16		0.005	
O=C(c1ccc(-c2cccc(C(F)(F)F)c2)cc1)N1CC(N2CCN(C(=O)c3ccno3)CC2)C1 [Cpd 1118]	16		0.053	
O=C(c1ccc2c(-c3ccccc3)c(-c3ccccc3)[nH]c2c1)N1CC(N2CCN(C(=O)c3nccs3)CC2)C1 [Cpd 1119]	17	0.02		
O=C(c1ccc2c(ccn2-c2ccc(F)cn2)c1)N1CC(N2CCN(C(=O)c3nccs3)CC2)C1 [Cpd 1121, 1-(5-Fluoropyridin-2-yl)-5-({3-[4-(1,3-thiazol-2-ylcarbonyl)piperazin-1-yl]azetidin-1-yl}carbonyl)-1H-indole]	18	0.042		
O=C(c1ccc(-n2cc(-c3cc(F)cc(F)c3)cn2)cc1)N1CC(N2CCN(C(=O)c3nccs3)CC2)C1 [Cpd 1123]	19	1.35		
O=C(c1ccc2c(ccn2-c2ccncc2)c1)N1CC(N2CCN(C(=O)c3nccs3)CC2)C1 [Cpd 1127, 1-Pyridin-4-yl-5-({3-[4-(1,3-thiazol-2-ylcarbonyl)piperazin-1-yl]azetidin-1-yl}carbonyl)-1H-indole]	20	0.098		
Cc1ccnc(-n2ccc3cc(C(=O)N4CC(N5CCN(C(=O)c6nccs6)CC5)C4)ccc32)c1 [Cpd 1128, 1-(4-Methylpyridin-2-yl)-5-({3-[4-(1,3-thiazol-2-ylcarbonyl)piperazin-1-yl]azetidin-1-yl}carbonyl)-1H-indole]	21	0.018		
Cn1cc(-c2cccc(F)c2)c2ccc(C(=O)N3CC(N4CCN(C(=O)c5nccs5)CC4)C3)cc21 [Cpd 1142]	29			Kd (mutant MGL; [2]): 0.001 µM

Compound	IC50 [1] [nM]	Kd (mutant MGL; [3]) [µM]	Kd (mutant MGL; [4]) [µM]	also measured
O=C(c1ccc(-c2cccc(C(F)(F)F)c2)cc1)N1CC(N2CCN(C(=O)c3ccc(Cl)s3)CC2)C1 [Cpd 1143]	30		0.07	
O=C(c1ccc(-c2cccc(C(F)(F)F)c2)cc1)N1CC(N2CCN(C(=O)c3ccon3)CC2)C1 [Cpd 1145]	31		0.061	
Cc1nn(-c2cccc(C(F)(F)F)c2)c2sc(C(=O)N3CC(N4CCN(C(=O)c5nccs5)CC4)C3)cc12 [Cpd 1146]	32	0.08		
Cc1c(C(=O)N2CC(N3CCN(C(=O)c4nccs4)CC3)C2)[nH]c2ccc(-c3cccnc3F)cc12 [Cpd 1149, 5-(2-Fluoropyridin-3-yl)-3-methyl-2-({3-[4-(1,3-thiazol-2-ylcarbonyl)piperazin-1-yl]azetidin-1-yl}carbonyl)-1H-indole]	35		0.004	
O=C(c1ccc2nc(-c3cccc(C(F)(F)F)c3)oc2c1)N1CC(N2CCN(C(=O)c3nccs3)CC2)C1 [Cpd 1158, 6-({3-[4-(1,3-Thiazol-2-ylcarbonyl)piperazin-1-yl]azetidin-1-yl}carbonyl)-2-[3-(trifluoromethyl)phenyl]-1,3-benzoxazole]	42			Kd (mutant MGL; [5]): 0.008 µM
O=C(c1ccc2nc(-c3ccccn3)sc2c1)N1CC(N2CCN(C(=O)c3nccs3)CC2)C1 [Cpd 1165]	51		0.09	
O=C(c1ccc(-c2cccc(C(F)(F)F)c2)cc1)N1CC(N2CCN(C(=O)c3cnco3)CC2)C1 [Cpd 1169]	55		0.053	
COc1cncc(-c2ccc3[nH]c(C(=O)N4CC(N5CCN(C(=O)c6nccs6)CC5)C4)c(C)c3c2)c1 [Cpd 1175]	66		0.01	
O=C(c1ccc2c(ccn2-c2ccc(Cl)cn2)c1)N1CC(N2CCN(C(=O)c3cscn3)CC2)C1 [Cpd 1180, 1-(5-Chloropyridin-2-yl)-5-({3-[4-(1,3-thiazol-4-ylcarbonyl)piperazin-1-yl]azetidin-1-yl}carbonyl)-1H-indole]	75	0.019		
O=C(c1ccc2c(ccn2-c2ccccn2)c1)N1CC(N2CCN(C(=O)c3ccc[nH]3)CC2)C1 [Cpd 1189, 1-Pyridin-2-yl-5-({3-[4-(1H-pyrrol-2-ylcarbonyl)piperazin-1-yl]azetidin-1-yl}carbonyl)-1H-indole]	97	0.153		
O=C(c1nccs1)N1CCN(C2CN(C(=O)c3cccc4oc(-c5cccc(Cl)c5)nc34)C2)CC1 [Cpd 1191]	105			Kd (mutant MGL; [6]): 0.011 µM
O=C(c1ccc2c(ccn2-c2cccnc2)c1)N1CC(N2CCN(C(=O)c3nccs3)CC2)C1 [Cpd 1192, 1-Pyridin-3-yl-5-({3-[4-(1,3-thiazol-2-ylcarbonyl)piperazin-1-yl]azetidin-1-yl}carbonyl)-1H-indole]	109	0.035		
O=C(c1nccs1)N1CCN(C2CN(C(=O)c3cccc4oc(-c5ccccc5F)nc34)C2)CC1 [Cpd 1193]	116			Kd (mutant MGL; [6]): 0.017 µM
O=C(c1ccc2[nH]c(-c3ccccc3)nc2c1)N1CC(N2CCN(C(=O)c3nccs3)CC2)C1 [Cpd 1194]	118			Kd (mutant MGL; [5]): 0.1 µM
Cn1nc(-c2ccc(F)cc2)c2cc(C(=O)N3CC(N4CCN(C(=O)c5nccs5)CC4)C3)ccc21 [Cpd 1195]	120			Kd (mutant MGL; [5]): 0.023 µM
COc1cncc(-c2ccc3cc(C(=O)N4CC(N5CCN(C(=O)c6nccs6)CC5)C4)[nH]c3c2)c1 [Cpd 1196]	123		0.37	
Cc1ccnc(-n2ccc3cc(C(=O)N4CC(N5CCN(C(=O)c6cscn6)CC5)C4)ccc32)c1 [Cpd 1197, 1-(4-Methylpyridin-2-yl)-5-({3-[4-(1,3-thiazol-4-ylcarbonyl)piperazin-1-yl]azetidin-1-yl}carbonyl)-1H-indole]	133	0.065		
Cc1c(C(=O)N2CC(N3CCN(C(=O)c4cscn4)CC3)C2)nn(-c2ccc(Cl)cc2Cl)c1-c1ccc(Cl)cc1 [Cpd 1198]	143			Kd (mutant MGL; [6]): 0.03 µM
Cc1nc(-c2ccccc2F)sc1C(=O)N1CC(N2CCN(C(=O)c3nccs3)CC2)C1 [Cpd 1202]	152			Kd (mutant MGL; [5]): 0.065 µM
Cc1nn(-c2ccc(F)cc2)c2ncc(C(=O)N3CC(N4CCN(C(=O)c5nccs5)CC4)C3)cc12 [Cpd 1203]	153	0.015		
